Assay results published in paper PMC4434603 (Journal of biomolecular screening, 2011).

T1: His-RORα-LBD (Homo sapiens, UniProt P35398)
T1 sequence (P35398 with tags, fused parts or gaps): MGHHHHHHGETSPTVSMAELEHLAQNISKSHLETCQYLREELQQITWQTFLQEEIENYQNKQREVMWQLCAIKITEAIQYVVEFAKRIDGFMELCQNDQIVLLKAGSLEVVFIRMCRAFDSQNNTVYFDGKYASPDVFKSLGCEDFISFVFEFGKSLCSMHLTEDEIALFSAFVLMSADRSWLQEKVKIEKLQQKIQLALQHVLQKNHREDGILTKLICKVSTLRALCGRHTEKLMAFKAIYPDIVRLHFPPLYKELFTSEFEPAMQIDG

T2: Biotin-PGC-1α NR1 peptide (biotin on the N-terminus)
T2 peptide: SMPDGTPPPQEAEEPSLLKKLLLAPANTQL


Experiments:
[1] = biological target: T1, His-RORα-LBD; test: HTS LOPAC AlphaScreen screen and compound response curves; type: biochemical; conditions: CRC; for EC50: read-out: Final EC50, 50 µM top, 3-fold dilutions, 10 points, triplicate
[2] = biological target: T2, Biotin-PGC-1α NR1 peptide; test: AlphaScreen or HTRF

Molecule | Hill Slope [1] | EC50 [1] [nM] | EC50 [2] [nM]
CCCCCCC(C)(C)c1ccc([C@@H]2C[C@H](O)CC[C@H]2CCCO)c(O)c1 [C 1112] | 1.73 | 224 | –
CC(=O)[C@H]1CC[C@H]2[C@@H]3CCC4=CC(=O)CC[C@]4(C)[C@H]3CC[C@]12C [P 0130] | 1.07 | 833 | –
CC(=O)[C@H]1CCC2C3CC[C@H]4C[C@H](O)CC[C@]4(C)C3CC[C@@]21C (stereo partly drawn) [P 8887] | 0.28 | 331 | –
C[C@]12C=CC(=O)C=C1CC[C@@H]1C2=CC[C@]2(C)[C@@H](C(=O)CN3CCN(c4cc(N5CCCC5)nc(N5CCCC5)n4)CC3)CC[C@@H]12.O=C(O)/C=C\C(=O)O [U 5882] | 1.79 | 393 | –
His-RORα-LBD (262–523) (domain or fragment) GETSPTVSMAELEHLAQNISKSHLETCQYLREELQQITWQTFLQEEIENYQNKQREVMWQLCAIKITEAIQYVVEFAKRIDGFMELCQNDQIVLLKAGSLEVVFIRMCRAFDSQNNTVYFDGKYASPDVFKSLGCEDFISFVFEFGKSLCSMHLTEDEIALFSAFVLMSADRSWLQEKVKIEKLQQKIQLALQHVLQKNHREDGILTKLICKVSTLRALCGRHTEKLMAFKAIYPDIVRLHFPPLYKELFTSEFEPAMQIDG | – | – | 36
